# From ChEMBL document CHEMBL1212733, “Chemical genomics in Escherichia coli identifies an inhibitor of bacterial lipoprotein targeting” (Nat Chem Biol, 2009)
# pKd: −log10 of the molar value. The source made the active and inactive calls. No cut-off for these calls is given here.
# Tests used:
# [1] = molecular target: T1, Outer-membrane lipoprotein carrier protein (Escherichia coli (strain K12)) (UniProt P61316); test: Inhibition of IPTG-stimulated Escherichia coli K-12 lolA at 4 fold MIC by microarray analysis
# T1 sequence (whole entry): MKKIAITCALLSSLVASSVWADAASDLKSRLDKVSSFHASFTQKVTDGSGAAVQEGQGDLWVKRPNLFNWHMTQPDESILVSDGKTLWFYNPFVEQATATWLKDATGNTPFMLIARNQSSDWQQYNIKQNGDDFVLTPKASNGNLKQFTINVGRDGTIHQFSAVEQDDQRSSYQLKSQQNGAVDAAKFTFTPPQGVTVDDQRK
# [2] = system: Escherichia coli; test: Antibacterial activity against Escherichia coli K-12 harboring lolA gene after 16 hrs by serial dilution method; format: functional; settings: K-12, 16 h
# [3] = molecular target: T1, Outer-membrane lipoprotein carrier protein (Escherichia coli (strain K12)); test: Inhibition of IPTG-stimulated Escherichia coli K-12 lolA at 16 fold MIC after 16 hrs by spectrophotometry
# [4] = system: Escherichia coli; test: Induction of Lpp accumulation in inner membrane of Escherichia coli K-12 MG1655 at 320 ug/ml after 20 mins by SDS-PAGE; format: functional, organism-based
# [5] = system: Escherichia coli; test: Induction of Lpp accumulation in inner membrane of Escherichia coli K-12 MG1655 at 320 ug/ml after 20 mins by autoradiography; format: functional, organism-based
# [6] = molecular target: Outer-membrane lipoprotein carrier protein (Escherichia coli (strain K12), UniProt P61316); test: Binding affinity to Escherichia coli K-12 lolA expressed in Escherichia coli BL21(AI) by NMR spectrometry
# [7] = molecular target: Multidrug efflux pump subunit AcrB (Escherichia coli (strain K12)) (UniProt P31224); test: Binding affinity to Escherichia coli K-12 MC1061 acrB assessed as decrease in susceptibility to compound efflux at 2 to 128 ug/ml after 16 hrs by plate reader assay
# Chain of Multidrug efflux pump subunit AcrB (Escherichia coli (strain K12)) (P31224 whole entry): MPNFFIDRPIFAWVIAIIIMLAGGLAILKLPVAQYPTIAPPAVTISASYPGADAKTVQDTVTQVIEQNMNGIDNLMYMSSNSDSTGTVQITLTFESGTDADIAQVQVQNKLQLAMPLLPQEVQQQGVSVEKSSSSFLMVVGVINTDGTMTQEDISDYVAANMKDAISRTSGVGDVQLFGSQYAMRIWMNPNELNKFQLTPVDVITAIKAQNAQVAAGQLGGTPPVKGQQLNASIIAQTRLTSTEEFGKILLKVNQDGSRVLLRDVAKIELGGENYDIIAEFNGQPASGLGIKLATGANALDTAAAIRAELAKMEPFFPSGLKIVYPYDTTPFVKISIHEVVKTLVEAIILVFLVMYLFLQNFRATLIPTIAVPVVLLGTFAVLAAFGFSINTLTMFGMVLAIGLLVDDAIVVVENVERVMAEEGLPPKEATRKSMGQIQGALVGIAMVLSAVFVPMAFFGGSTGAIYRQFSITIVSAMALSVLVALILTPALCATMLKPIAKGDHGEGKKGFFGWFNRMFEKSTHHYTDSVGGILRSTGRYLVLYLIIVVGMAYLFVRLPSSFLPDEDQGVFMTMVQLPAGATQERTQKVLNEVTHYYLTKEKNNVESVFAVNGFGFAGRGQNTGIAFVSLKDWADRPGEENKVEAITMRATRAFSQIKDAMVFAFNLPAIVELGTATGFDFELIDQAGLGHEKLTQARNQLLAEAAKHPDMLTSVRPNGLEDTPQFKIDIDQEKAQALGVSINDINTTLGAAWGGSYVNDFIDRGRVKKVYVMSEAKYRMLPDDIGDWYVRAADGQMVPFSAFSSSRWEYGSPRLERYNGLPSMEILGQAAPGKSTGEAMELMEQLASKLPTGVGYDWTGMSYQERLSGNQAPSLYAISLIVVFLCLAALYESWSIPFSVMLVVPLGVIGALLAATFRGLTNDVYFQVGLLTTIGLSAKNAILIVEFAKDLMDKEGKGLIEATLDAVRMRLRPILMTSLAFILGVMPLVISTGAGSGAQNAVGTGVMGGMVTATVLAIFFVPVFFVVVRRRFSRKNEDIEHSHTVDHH
# [8] = system: Escherichia coli; test: Antibacterial activity against Escherichia coli K-12 MG1655 after 16 hrs by microbroth dilution method; format: functional; settings: K-12 MG1655, 16 h
# [9] = system: Escherichia coli; test: Antibacterial activity against Escherichia coli ATCC 25922 after 16 hrs by microbroth dilution method; format: functional; settings: ATCC 25922, 16 h
# [10] = system: Pseudomonas aeruginosa; test: Antibacterial activity against Pseudomonas aeruginosa PAO1 after 16 hrs by microbroth dilution method; format: functional; settings: PAO1, 16 h
# [11] = system: Stenotrophomonas maltophilia; test: Antibacterial activity against Stenotrophomonas maltophilia B22020 after 16 hrs by microbroth dilution method; format: functional; settings: B22020, 16 h
# [12] = system: Burkholderia cepacia; test: Antibacterial activity against Burkholderia cepacia B154408 after 16 hrs by microbroth dilution method; format: functional; settings: B154408, 16 h
# [13] = system: Bacillus subtilis; test: Antibacterial activity against Bacillus subtilis 168 after 16 hrs by microbroth dilution method; format: functional; settings: subsp. subtilis str. 168, 16 h
# [14] = system: Micrococcus luteus; test: Antibacterial activity against Micrococcus luteus after 16 hrs by microbroth dilution method; format: functional
# [15] = system: Staphylococcus aureus; test: Antibacterial activity against Staphylococcus aureus after 16 hrs by microbroth dilution method; format: functional
# [16] = system: HeLa; test: Cytotoxicity against human HeLa cells after 24 hrs by Cell Titre-Glo luminescent assay; format: cell-based
# [17] = system: Candida albicans; test: Antifungal activity against Candida albicans after 16 hrs by microbroth dilution method; format: functional
# [18] = system: Pseudomonas aeruginosa; test: Antibacterial activity against multidrug-resistant Pseudomonas aeruginosa PS216 after 16 hrs by microbroth dilution method; format: functional; settings: PS216, 16 h
# [19] = system: Pseudomonas aeruginosa; test: Antibacterial activity against multidrug-resistant Pseudomonas aeruginosa PS225 after 16 hrs by microbroth dilution method; format: functional; settings: PS225, 16 h
# [20] = system: Pseudomonas aeruginosa; test: Antibacterial activity against multidrug-resistant Pseudomonas aeruginosa PS232 after 16 hrs by microbroth dilution method; format: functional; settings: PS232, 16 h
# [21] = system: Pseudomonas aeruginosa; test: Antibacterial activity against multidrug-resistant Pseudomonas aeruginosa PS301 after 16 hrs by microbroth dilution method; format: functional; settings: PS301, 16 h
# [22] = system: Pseudomonas aeruginosa; test: Antibacterial activity against multidrug-resistant Pseudomonas aeruginosa PS364 after 16 hrs by microbroth dilution method; format: functional; settings: PS364, 16 h
# [23] = system: Pseudomonas aeruginosa; test: Antibacterial activity against multidrug-resistant Pseudomonas aeruginosa PS35823 after 16 hrs by microbroth dilution method; format: functional; settings: PS35823, 16 h
# [24] = system: Pseudomonas aeruginosa; test: Antibacterial activity against multidrug-resistant Pseudomonas aeruginosa PS36769 after 16 hrs by microbroth dilution method; format: functional; settings: PS36769, 16 h
# [25] = system: Pseudomonas aeruginosa; test: Antibacterial activity against multidrug-resistant Pseudomonas aeruginosa PS37619 after 16 hrs by microbroth dilution method; format: functional; settings: PS37619, 16 h
# [26] = system: Pseudomonas aeruginosa; test: Antibacterial activity against multidrug-resistant Pseudomonas aeruginosa PS37834 after 16 hrs by microbroth dilution method; format: functional; settings: PS37834, 16 h
# [27] = system: Pseudomonas aeruginosa; test: Antibacterial activity against multidrug-resistant Pseudomonas aeruginosa PS8534624 after 16 hrs by microbroth dilution method; format: functional; settings: PS8534624, 16 h
# [28] = system: Pseudomonas aeruginosa; test: Antibacterial activity against multidrug-resistant Pseudomonas aeruginosa PS8539204 after 16 hrs by microbroth dilution method; format: functional; settings: PS8539204, 16 h
# [29] = system: Pseudomonas aeruginosa; test: Antibacterial activity against multidrug-resistant Pseudomonas aeruginosa PAE231 after 16 hrs by microbroth dilution method; format: functional; settings: PAE231, 16 h
# [30] = system: Pseudomonas aeruginosa; test: Antibacterial activity against multidrug-resistant Pseudomonas aeruginosa PAE252 after 16 hrs by microbroth dilution method; format: functional; settings: PAE252, 16 h
# [31] = system: Pseudomonas aeruginosa; test: Antibacterial activity against multidrug-resistant Pseudomonas aeruginosa PAE287 after 16 hrs by microbroth dilution method; format: functional; settings: PAE287, 16 h
# [32] = system: Pseudomonas aeruginosa; test: Antibacterial activity against multidrug-resistant Pseudomonas aeruginosa PAE302 after 16 hrs by microbroth dilution method; format: functional; settings: PAE302, 16 h
# [33] = system: Pseudomonas aeruginosa; test: Antibacterial activity against multidrug-resistant Pseudomonas aeruginosa PAE349 after 16 hrs by microbroth dilution method; format: functional; settings: PAE349, 16 h
# [34] = molecular target: T1, Outer-membrane lipoprotein carrier protein (Escherichia coli (strain K12)); test: Inhibition of IPTG-stimulated Escherichia coli K-12 lolA at 16 fold MIC by microarray analysis
# [35] = molecular target: T2, Outer membrane protein TolC (Escherichia coli (strain K12)) (UniProt P02930); test: Inhibition of IPTG-stimulated Escherichia coli K-12 tolC at 16 fold MIC by microarray analysis
# T2 sequence (whole entry): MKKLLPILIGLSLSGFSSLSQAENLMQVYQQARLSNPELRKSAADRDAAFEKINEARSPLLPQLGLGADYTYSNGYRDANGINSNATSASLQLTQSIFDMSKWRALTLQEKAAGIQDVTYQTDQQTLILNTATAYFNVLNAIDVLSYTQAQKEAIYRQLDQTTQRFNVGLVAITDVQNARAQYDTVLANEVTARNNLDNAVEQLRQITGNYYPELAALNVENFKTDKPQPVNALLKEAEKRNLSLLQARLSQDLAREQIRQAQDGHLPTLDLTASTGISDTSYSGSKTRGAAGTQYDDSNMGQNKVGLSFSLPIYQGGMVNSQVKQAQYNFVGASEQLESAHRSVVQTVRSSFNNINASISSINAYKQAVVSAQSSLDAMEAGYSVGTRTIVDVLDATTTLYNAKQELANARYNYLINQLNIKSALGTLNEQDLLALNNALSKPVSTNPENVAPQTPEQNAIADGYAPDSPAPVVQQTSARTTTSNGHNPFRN
# [36] = molecular target: T1, Outer-membrane lipoprotein carrier protein (Escherichia coli (strain K12)); test: Inhibition of IPTG-stimulated Escherichia coli K-12 lolA at 8 fold MIC by microarray analysis
# [37] = molecular target: T2, Outer membrane protein TolC (Escherichia coli (strain K12)); test: Inhibition of IPTG-stimulated Escherichia coli K-12 tolC at 8 fold MIC by microarray analysis
# [38] = molecular target: T2, Outer membrane protein TolC (Escherichia coli (strain K12)); test: Inhibition of IPTG-stimulated Escherichia coli K-12 tolC at 4 fold MIC by microarray analysis
smiles,measurement,setting,value
COc1ccc(CCN2CN=C(SCc3ccc(Cl)cc3)NC2)cc1OC,inhibition,[1],Active
same,MIC,[2],8 µg/mL
same,inhibition,[3],inactive
same,Activity,[4],Active
same,Activity,[5],Active
same,pKd,[6],5.12
same,Activity,[7],Active
same,MIC,[8],16 µg/mL
same,MIC,[9],16 µg/mL
same,MIC,[10],4 µg/mL
same,MIC,[11],8 µg/mL
same,MIC,[12],128 µg/mL
same,MIC,[13],> 256 µg/mL
same,MIC,[14],> 256 µg/mL
same,MIC,[15],> 256 µg/mL
same,Activity,[16],> 256 µg/mL
same,MIC,[17],> 256 µg/mL
same,MIC,[18],16 µg/mL
same,MIC,[19],1 µg/mL
same,MIC,[20],4 µg/mL
same,MIC,[21],256 µg/mL
same,MIC,[22],128 µg/mL
same,MIC,[23],4 µg/mL
same,MIC,[24],4 µg/mL
same,MIC,[25],128 µg/mL
same,MIC,[26],16 µg/mL
same,MIC,[27],2 µg/mL
same,MIC,[28],128 µg/mL
same,MIC,[29],16 µg/mL
same,MIC,[30],2 µg/mL
same,MIC,[31],4 µg/mL
same,MIC,[32],4 µg/mL
same,MIC,[33],4 µg/mL
same,inhibition,[34],Active
same,inhibition,[35],Active
same,inhibition,[36],Active
same,inhibition,[37],Active
same,inhibition,[38],Active
